Measured values published in ChEMBL document CHEMBL3091433, “Structure-based design of substituted hexafluoroisopropanol-arylsulfonamides as modulators of RORc” (Bioorg Med Chem Lett, 2013).

Legend:
PBMC [1] = experiment: Cytotoxicity against human PBMC assessed as effect on cell physiology after 48 hrs by CellTiter-Glo assay
PBMC [2] = experiment: Antiinflammatory activity in human PBMC assessed as inhibition of IL-17 production after 48 hrs by Sandwich ELISA relative to control; format: functional
PBMC [3] = experiment: cells; settings: Homo sapiens, 48 h
[4] = target: T1, Nuclear receptor ROR-alpha (Homo sapiens, UniProt P35398); experiment: Inverse agonist activity at GAL4-fused human RORa expressed in HEK293T cells assessed as suppression of basal transcriptional activity after 20 hrs by dual-glo luciferase reporter gene assay; format: cell-based, HEK-293T
T1 sequence (P35398 whole entry): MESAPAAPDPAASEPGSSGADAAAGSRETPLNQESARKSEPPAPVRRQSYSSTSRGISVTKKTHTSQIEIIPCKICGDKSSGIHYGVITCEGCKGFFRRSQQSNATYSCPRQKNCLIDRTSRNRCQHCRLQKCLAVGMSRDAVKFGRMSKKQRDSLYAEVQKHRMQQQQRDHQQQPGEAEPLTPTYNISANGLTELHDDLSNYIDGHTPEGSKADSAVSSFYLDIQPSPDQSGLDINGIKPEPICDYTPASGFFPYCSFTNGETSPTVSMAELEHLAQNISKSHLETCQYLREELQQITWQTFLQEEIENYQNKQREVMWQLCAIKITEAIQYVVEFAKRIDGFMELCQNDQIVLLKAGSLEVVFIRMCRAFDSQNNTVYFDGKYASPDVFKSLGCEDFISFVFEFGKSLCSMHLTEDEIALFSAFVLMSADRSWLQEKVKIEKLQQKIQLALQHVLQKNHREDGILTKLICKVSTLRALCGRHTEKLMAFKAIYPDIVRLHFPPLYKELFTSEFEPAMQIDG

[5] = target: T2, Nuclear receptor subfamily 1 group I member 2 (Homo sapiens, UniProt O75469); experiment: Agonist activity at GAL4-fused human PXR expressed in HEK293T cells assessed as activation of basal transcriptional activity after 20 hrs by dual-glo luciferase reporter gene assay; format: cell-based, HEK-293T
T2 sequence (O75469 whole entry): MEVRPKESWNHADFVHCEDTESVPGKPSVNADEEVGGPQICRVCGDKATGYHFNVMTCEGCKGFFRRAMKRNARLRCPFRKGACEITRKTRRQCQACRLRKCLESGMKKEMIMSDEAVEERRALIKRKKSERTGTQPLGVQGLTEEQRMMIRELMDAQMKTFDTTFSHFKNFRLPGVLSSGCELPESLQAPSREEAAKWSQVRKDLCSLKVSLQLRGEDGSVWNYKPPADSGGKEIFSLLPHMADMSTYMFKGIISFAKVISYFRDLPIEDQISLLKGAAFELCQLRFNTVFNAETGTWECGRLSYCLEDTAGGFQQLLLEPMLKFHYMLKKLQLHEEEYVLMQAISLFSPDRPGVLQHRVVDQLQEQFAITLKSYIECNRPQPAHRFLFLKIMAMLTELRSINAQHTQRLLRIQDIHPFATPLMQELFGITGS

PXR (NR1I2) = target: T3, PXR (NR1I2) (Homo sapiens, UniProt O75469); experiment: in vitro; settings: HEK293T cells expressing GAL4-fused human PXR
T3 sequence (O75469 whole entry): T2 sequence (O75469 whole entry)
Description: Agonist activity at GAL4-fused human PXR expressed in HEK293T cells assessed as activation of basal transcriptional activity after 20 hrs by dual-glo luciferase reporter gene assay relative to apo-receptor

PBMC [6] = experiment: Inhibition of IFNgamma production in human PBMC after 48 hrs by Sandwich ELISA
[7] = target: T4, Nuclear receptor ROR-gamma (Homo sapiens, UniProt P51449)
T4 sequence (P51449 whole entry): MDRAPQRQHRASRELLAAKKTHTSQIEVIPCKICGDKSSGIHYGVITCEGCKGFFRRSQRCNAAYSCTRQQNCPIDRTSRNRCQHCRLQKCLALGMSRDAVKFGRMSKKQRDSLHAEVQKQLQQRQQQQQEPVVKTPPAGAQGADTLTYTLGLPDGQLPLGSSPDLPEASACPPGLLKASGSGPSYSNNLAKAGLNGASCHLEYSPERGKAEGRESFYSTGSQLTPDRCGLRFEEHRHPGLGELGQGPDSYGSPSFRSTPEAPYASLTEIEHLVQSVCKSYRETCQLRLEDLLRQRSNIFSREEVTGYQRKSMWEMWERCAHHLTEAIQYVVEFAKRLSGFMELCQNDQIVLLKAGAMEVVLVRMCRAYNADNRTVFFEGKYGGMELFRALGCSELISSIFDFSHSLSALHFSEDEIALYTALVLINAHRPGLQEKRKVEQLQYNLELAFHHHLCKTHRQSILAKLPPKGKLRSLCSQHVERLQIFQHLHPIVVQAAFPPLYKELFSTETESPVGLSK
Description: Displacement of [3H2]-25-hydroxycholesterol from N-terminal 6xHis-tagged human RORc ligand binding domain (241 to 486) expressed in bacterial expression system after 3 hrs by scintillation counting analysis

SMILES | EC50 (PBMC [1]) | Imax (PBMC [2]) | EC50 (PBMC [3]) | EC50 [4] | EC50 [5] | fold induction at 20 h (PXR (NR1I2)) | EC50 (PBMC [6]) | IC50 [7]
N#Cc1ccc(S(=O)(=O)N(CC(F)(F)F)c2ccc(C(O)(C(F)(F)F)C(F)(F)F)cc2)cc1 | > 20 µM | 74% | 1 µM | 7 µM | 0.571 µM | 27 | > 20 µM | 0.05 µM
CCN(c1ccc(C(O)(C(F)(F)F)C(F)(F)F)cc1)S(=O)(=O)c1ccccc1 | – | – | – | 5 µM | 0.039 µM | 24 | – | 0.245 µM
O=S(=O)(c1ccc(F)cc1)N(CC(F)(F)F)c1ccc(C(O)(C(F)(F)F)C(F)(F)F)cc1 | > 20 µM | 83% | 0.132 µM | 6 µM | 0.194 µM | 30 | > 20 µM | 0.034 µM
